Measured values as given in patent US10745401B2, “Condensed lactam derivative” (Sumitomo Dainippon Pharma Co., Ltd., priority 2018, dated 2020).

Key:
human 5-HT1A receptor [1] = target: T1, human 5-HT1A receptor (Homo sapiens (Human), UniProt P08908); experiment: Test 1: binding activity for human 5-HT1A receptor ([3H]8-OH-DPAT, CHO cell membrane fraction)
Description: (§1) Test 1: Evaluation of Binding Activity for Human 5-HT1A Receptor, Human 5-HT2A Receptor, and Human D2 Receptor
(§2) Binding affinity of the present compound for human 5-HT1A receptor, human 5-HT2A receptor, and human D2 receptor was measured by the following procedures.
(§3) Each mixture was incubated at room temperature for 60 minutes. Then, the mixture was added quickly on a glassfiber filter plate (Multiscreen FB, Millipore, Inc.) coated with 0.3% aqueous polyethylenimine, and vacuum-filtered. Radioactivity remaining on the filter was measured with a liquid scintillation counter (PerkinElmer, Inc.). Binding inhibition rate was calculated from the following formula.
(§4) IC50 value was calculated by Hill analysis (Physiology, 1910, 40, 190-200). Ki of each compound was calculated from the following formula. Binding inhibition constant (Ki)=IC50/(1+S/Kd) wherein S is concentration of ligand; Kd is a binding dissociation constant of ligand to membrane, which is calculated from a saturated binding experiment conducted with the same cell membrane. A small Ki value means strong binding ability to a receptor.

human D2 receptor = human D2 receptor (Homo sapiens (Human), UniProt P14416); experiment: Test 1: binding activity for human D2 receptor ([3H]Spiperone, CHO cell membrane fraction); settings: human D2 receptor, [3H]Spiperone
Chain of human D2 receptor (P14416 whole entry): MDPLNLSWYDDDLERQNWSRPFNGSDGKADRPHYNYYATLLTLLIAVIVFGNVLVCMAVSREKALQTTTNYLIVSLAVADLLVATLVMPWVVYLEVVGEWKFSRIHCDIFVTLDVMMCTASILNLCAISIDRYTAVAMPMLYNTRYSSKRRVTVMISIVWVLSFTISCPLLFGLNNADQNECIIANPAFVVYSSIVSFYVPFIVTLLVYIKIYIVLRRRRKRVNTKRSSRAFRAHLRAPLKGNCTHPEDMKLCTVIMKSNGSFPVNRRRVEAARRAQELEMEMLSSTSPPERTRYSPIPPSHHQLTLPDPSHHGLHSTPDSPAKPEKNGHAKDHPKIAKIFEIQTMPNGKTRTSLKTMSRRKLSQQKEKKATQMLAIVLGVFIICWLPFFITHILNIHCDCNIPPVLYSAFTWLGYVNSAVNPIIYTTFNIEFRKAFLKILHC
Description: as §1, §2, §3
as §4, with “Ki” for “IC50 value was calculated by Hill analysis (Physiology, 1910, 40, 190-200). Ki”

human 5-HT1A receptor [2] = target: T1, human 5-HT1A receptor; experiment: Test 2: agonist activity for human 5-HT1A receptor ([35S]GTPγS binding); type: biochemical; settings: for EC50: [35S]GTPγS binding, concentration at which half the activity of Emax was obtained; for Emax at 10 µM: agonist activity in the presence of 10 μM of compound, relative to 100 μmol/L 5-HT
Description: Test 2: Evaluation of Agonist Activity for Human 5-HT1A Receptor
CHO cell membrane fraction in which human 5-HT1A receptor was expressed as used in Test 1 was purchased. To a buffer containing guanosine diphosphate were added a test compound dissolved in DMSO, each receptor membrane sample diluted with buffer, and [^35S] Guanosine 5′-O-[gamma-thio]triphosphate (GTPγS). The mixture was incubated at room temperature for 60 minutes. Then, the mixture was added quickly on a glassfiber filter plate (Multiscreen FB, Millipore, Inc.), and vacuum-filtered. Radioactivity remaining on the […] was measured with a liquid scintillation counter. Agonist activity was calculated from the following formula.

[3] = Test 4: metabolic stability test in human hepatic microsome; type: in vitro ADME; settings: 0.1 mg/mL microsome, 0.1 μmol/L compound, 37° C., 30 minutes
Description: Test 4: Metabolic Stability Test in Human Hepatic Microsome
The stability of the present compound in human hepatic microsome metabolism was evaluated as mentioned below. Human hepatic microsome was obtained from Xenontech. Human hepatic microsome, NADPH, and each test compound were mixed in 25 mmol/L phosphate buffer solution (pH 7.4) to reach the following concentrations as shown below, and the mixture was incubated at 37° C. for 30 minutes. • Human hepatic microsome: 0.1 mg/mL • NAPDH: 3.2 mmol/L • Test compound: 0.1 μmol/L
The residual ratio of the test compound in each sample after 30 minutes was measured by LC-MS, and the metabolic stability in human hepatic microsome was calculated from the following formula. Metabolic stability in human hepatic microsome (mL/min/mg protein)=−LN (residual ratio)/30/0.1

hERG channel = hERG channel (Homo sapiens (Human), UniProt Q12809); experiment: Test 6-1: inhibitory activity for hERG channel (auto patch clamp, Qpatch); type: cell-based; settings: whole cell auto patch clamp, hERG-CHO cells; read-out: hERG inhibition IC50
Chain of hERG channel (Q12809 whole entry): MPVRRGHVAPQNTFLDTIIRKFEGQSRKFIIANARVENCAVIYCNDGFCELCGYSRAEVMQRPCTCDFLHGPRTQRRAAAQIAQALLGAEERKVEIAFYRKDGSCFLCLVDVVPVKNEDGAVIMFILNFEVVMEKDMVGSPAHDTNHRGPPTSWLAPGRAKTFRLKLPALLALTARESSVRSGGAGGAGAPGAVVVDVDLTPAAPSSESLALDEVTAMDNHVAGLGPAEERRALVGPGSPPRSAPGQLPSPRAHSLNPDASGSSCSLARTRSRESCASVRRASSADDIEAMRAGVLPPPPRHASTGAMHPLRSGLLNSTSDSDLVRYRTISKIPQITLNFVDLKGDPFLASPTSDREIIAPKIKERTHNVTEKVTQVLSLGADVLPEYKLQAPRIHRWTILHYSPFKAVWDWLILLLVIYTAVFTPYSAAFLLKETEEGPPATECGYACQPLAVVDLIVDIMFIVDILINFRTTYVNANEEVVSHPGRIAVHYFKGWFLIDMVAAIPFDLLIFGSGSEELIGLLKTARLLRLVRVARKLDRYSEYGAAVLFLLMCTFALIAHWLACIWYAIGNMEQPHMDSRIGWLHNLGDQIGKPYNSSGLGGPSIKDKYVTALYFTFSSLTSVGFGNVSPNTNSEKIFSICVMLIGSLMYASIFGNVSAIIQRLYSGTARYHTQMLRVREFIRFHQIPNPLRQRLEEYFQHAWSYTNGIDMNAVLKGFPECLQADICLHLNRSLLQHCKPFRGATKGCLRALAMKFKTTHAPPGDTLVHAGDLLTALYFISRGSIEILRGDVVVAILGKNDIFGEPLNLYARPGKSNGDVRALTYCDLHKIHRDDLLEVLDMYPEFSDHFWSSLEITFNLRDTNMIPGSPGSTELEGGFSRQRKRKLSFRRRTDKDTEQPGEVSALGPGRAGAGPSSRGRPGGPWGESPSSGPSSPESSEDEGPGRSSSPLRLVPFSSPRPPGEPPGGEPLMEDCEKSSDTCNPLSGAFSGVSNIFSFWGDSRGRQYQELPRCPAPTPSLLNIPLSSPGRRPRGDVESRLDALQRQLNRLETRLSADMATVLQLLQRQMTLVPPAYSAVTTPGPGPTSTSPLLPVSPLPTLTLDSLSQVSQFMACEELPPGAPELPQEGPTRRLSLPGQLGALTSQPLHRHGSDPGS
Description: Test 6-1: Evaluation of Inhibitory Activity for hERG Channel
Inhibitory activity of the present compound for hERG channel was measured by whole cell patch clamp method with an auto patch clamp system using CHO cells in which hERG channel involved in human rapidly activating delayed rectifier potassium current (IKr) was forcibly expressed.
hERG-CHO cells purchased from ChanTest Cop. were cultured in a CO2 incubator at 37° C., and dissociated from a flask with trypsin shortly before the measurement of hERG current, to prepare a cell suspension.
Extracellular fluid: 2 mmol/L CaCl2, 1 mmol/L MgCl2, 10 mmol/L HEPES, 4 mmol/L KCl, 145 mmol/L NaCl, 10 mmol/L Glucose
Intracellular fluid: 5.4 mmol/L CaCl2, 1.8 mmol/L MgCl2, 10 mmol/L HEPES, 31 mmol/L KOH, 10 mmol/L EGTA, 120 mmol/L KCl, 4 mmol/L Na2-ATP
Test compound solution: Test compound was dissolved in DMSO to reach the concentration of 2 mmol/L or 20 mmol/L, in order to prepare a test compound solution. […] (Measurement of Current Value and Data Analysis)
The cell suspension, the extracellular fluid, the intracellular fluid, and the measurement plate were set in the auto patch clamp system, and hERG current was measured by whole cell patch clamp method. […] Each pulse interval was 15 seconds. The data analysis was carried out with Qpatch Assay Software (Biolin Scientific). The test was carried out by applying incrementally 4 concentrations of each test compound, and the average of the maximum peak tail currents which were obtained from the last 3 stimulations in each concentration was determined as the evaluated data. Based on the current inhibition rate for a pre-applied current at each concentration of each test compound, IC50 value was calculated by Hill equation with the software.

T1 sequence (P08908 whole entry): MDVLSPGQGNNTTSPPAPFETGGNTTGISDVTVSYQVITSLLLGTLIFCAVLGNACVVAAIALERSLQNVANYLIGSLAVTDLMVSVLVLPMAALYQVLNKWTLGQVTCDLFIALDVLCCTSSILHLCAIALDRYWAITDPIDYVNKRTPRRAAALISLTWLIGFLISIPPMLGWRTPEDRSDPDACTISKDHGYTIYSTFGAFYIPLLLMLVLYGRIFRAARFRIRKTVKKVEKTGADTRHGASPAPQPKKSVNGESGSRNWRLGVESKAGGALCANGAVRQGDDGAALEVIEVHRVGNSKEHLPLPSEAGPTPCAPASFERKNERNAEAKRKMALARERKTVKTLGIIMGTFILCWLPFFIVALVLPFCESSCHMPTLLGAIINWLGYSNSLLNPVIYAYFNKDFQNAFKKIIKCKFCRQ

Row | Structure (SMILES) | Ki (human 5-HT1A receptor [1]) [nM] | Ki (human D2 receptor) [nM] | EC50 (human 5-HT1A receptor [2]) [nM] | Emax at 10 µM (human 5-HT1A receptor [2]) [%] | Metabolic stability in human hepatic microsome [3] [mL/min/mg protein] | IC50 (hERG channel) [nM]
1 | CC1(C)CN(CCN2CCC(c3noc4cc(F)ccc34)CC2)C(=O)c2ncccc21 [Example 119] | 3.9 | 105 | 63.9 | 35 | – | –
2 | CC(CN1CCC(c2noc3cc(F)ccc23)CC1)N1CCc2cccnc2C1=O (stereo not drawn) [Example 122] | 24 | 537 | 121 | 23 | <0.05 | –
3 | O=C1c2cccnc2CCN1CCN1CCC(c2noc3ccccc23)CC1 [Example 128] | 83.2 | 625 | 35.9 | 33 | <0.05 | –
4 | O=C1c2ncccc2CCC1CCN1CCN(c2noc3cc(F)ccc23)CC1 (stereo not drawn) [Example 143] | 26.5 | 402 | 1040 | 31 | – | 800
5 | O=C1c2nc(Cl)ccc2CCN1CCN1CCN(c2noc3ccccc23)CC1 [Example 144] | – | > 10000 | – | 53 | <0.05 | –
6 | O=C1c2cccnc2CCN1CCN1CCN(c2noc3ccccc23)CC1 [Example 153, 6-{2-[4-(1,2-Benzoisoxazol-3-yl)piperazin-1-yl]ethyl}-7,8-dihydro-1,6-naphthyridin-5(6H)-one] | – | – | – | 16 | <0.05 | 7100
7 | CC(C)n1ncc2c1CCN(CCN1CCN(c3nsc4ccccc34)CC1)C2=O [Example 158] | 217 | 327 | 921 | 12 | 0.113 | –
8 | CC(C)n1ncc2c1CCN(CCN1CCC(c3noc4ccccc34)CC1)C2=O [Example 159] | 255 | 373 | 854 | 18 | <0.05 | –
9 | O=C1c2cnn(C3CC3)c2CCN1CCN1CCN(c2nsc3ccccc23)CC1 [Example 160] | 20.2 | 170 | 844 | 43 | 0.13 | –
10 | O=C1c2cnn(C3CC3)c2CCN1CCN1CCC(c2noc3ccccc23)CC1 [Example 161] | 203 | 216 | 6180 | 17 | <0.05 | –
11 | O=C1c2cn[nH]c2CCN1CCN1CCN(c2nsc3ccccc23)CC1 [Example 169] | 44.2 | 1920 | 62.9 | 44 | – | –
12 | O=c1c2cnc(C(F)(F)F)cc2ccn1CCN1CCN(c2nsc3ccccc23)CC1 [Example 172] | 3.33 | 384 | 8.2 | 72 | – | –
13 | Cc1ccc2c(n1)C(=O)N(CCN1CCC(c3noc4ccccc34)CC1)CC2 [Example 186] | – | – | – | – | 0.095 | –
14 | Cc1ccc2c(n1)C(=O)N(CCN1CCC(c3noc4ccccc34)CC1)CC2 [Example 187] | – | – | – | – | <0.05 | –
15 | Cc1ncc2c(=O)n(CCN3CCC(c4noc5ccccc45)CC3)ccc2n1 [Example 194, 6-{2-[4-(1,2-Benzoisoxazol-3-yl)piperidin-1-yl]ethyl}-2-methylpyrido[4,3-d]pyrimidin-5(6H)-one] | – | – | – | – | <0.05 | 4900
